Measurements as given in US20040121398A1 (priority 2000, published 2004).

Key:
B10 cells = type: cell-based, human
VTII and Bcl-2 = test: Far Western blotting of VTII/Bcl-2 complex formation (B10 cell extract, biotinylated VTII); type: binding, human; conditions: extract of Bcl-2-expressing B10 cells, biotinylated VTII, in the presence of NWGRI

Which “induction of apoptotic cell death by VTII” value (B10 cells) does the source give for NWGRI here?
The value was “suppressed”.

What about the “complex formation of VTII and Bcl-2” value (VTII and Bcl-2) of the same substance?
Its value is “interrupted the complex formation of VTII and Bcl-2 in a dose dependent manner”.
